Assay results published in patent US7132542B2, “Compounds for the treatment of male erectile dysfunction” (Bristol-Myers Squibb Company, priority 2003, dated 2006).

Experiments:
[1] = test system: rat small intestine tissue; assay: Relaxation of rat small intestine (ileum) segments; set-up: concentration or dose not given beside the values; conditions: integral of nifedipine-sensitive force, 30 min post-compound addition
Excerpt: The ability of the compounds of the invention to relax rat small intestine tissue as a model for the treatment of irritable bowel syndrome is described as follows. Male rats (Harlan, Sprague Dawley, 250–350 g) were sacrificed by decapitation. A portion of small intestine (ileum) was removed and the attached connective tissues and intestinal contents removed. The ileum was cut into segments of ≦1 cm in length. The segments were mounted longitudinally between fixed hooks in organ baths containing warm (37° C.) physiological salt solution (composition in mM: NaCl 118.4, KCl 4.7, KH2PO4 1.2, MgSO4 1.2, CaCl2 1.8, Glucose 10.1, NaHCO3 25; gassed with 95% O2/5% CO2, pH 7.4). A stable tension of ˜1.5 g was maintained in the tissue segments during the equilibration period of 45 minutes. Changes in muscle tension were measured with isometric force transducers (Grass, FT-03C) and recorded using AcqKnowledge data acquisition system (AcqKnowledge for MP100WS, Biopac Systems Inc., Goleta, Calif.). Compound or vehicle was added in the baths for 30 minutes. “Zero” active force was established at the end of the experiment using nifedipine (20 μM). The effects of compounds or vehicle on force was determined by measuring the integral of nifedipine-sensitive force (including resting tone and spontaneous contractions) pre- and 30 min post-compound (or vehicle) addition. Results are expressed as the percentage inhibition of force. DMSO vehicle inhibited force (integral) by −0.6±3.0% (n=25).

[2] = test system: rabbit corpus cavernosum tissue; assay: Relaxation of rabbit corpus cavernosum strips precontracted with phenylephrine; conditions: Oryctolagus cuniculus; inhibition of phenylephrine (3 μM)-induced force as compared to vehicle control; read-out: % Inhibition of force (RCC strips)
Protocol: The ability of the compounds of the invention to relax rabbit corpus cavernosum tissue as a model for the treatment of erectile dysfunction is described as follows. New Zealand white rabbits (3.4–3.7 kg) were euthanized by sodium pentobarbital (100 mg/kg) overdose. The penis from each animal was rapidly removed and immersed in a cold oxygenated modified Krebs Henseleit bicarbonate buffer. The penis' outer tunica was removed and the corpus cavernosum smooth muscle obtained and cut into strips approximately 3–5 mm long. The strips were suspended in tissue baths containing physiological salt solution (see above), and allowed to equilibrate for at least one hour under resting tension of 1.0 gram. Isometric force was measured as described above. Tissue strips were stimulated with the α-agonist phenylephrine (3 μM) and allowed to reach a steady level of force prior to the addition of test compounds. The results are expressed as the percentage inhibition of phenylephrine-induced force as compared to vehicle control.

[3] = test system: cloned mammalian (mSlo or hSlo) BK channel; assay: Assay for BK channel openers: two-electrode voltage clamp of BK-mediated outward current in Xenopus oocytes; assay type: cell-based; conditions: at 1 μM; percent increase over BK current in controls, voltage step to +140 mV; IBTX-sensitive current
Protocol: The ability of the compounds of the invention to open BK channels and increase whole-cell outward (K^+) BK-mediated currents was assessed under voltage-clamp conditions by determining their ability to increase cloned mammalian (mSlo or hSlo) BK-mediated outward current heterologously expressed in Xenopus oocytes [Butler, A., et al., Science 1993, 261, 221–224; Dworetzky, S. I., et al., Mol. Brain Res. 1994, 27, 189–193; Gribkoff, V. K., et al., Mol. Pharmacol. 1996, 50, 206–217]. The two BK constructs employed represent nearly structurally identical homologous proteins, and have proven to be pharmacologically indistinguishable in our tests. To isolate BK current from native (background, non-BK) current, the specific and potent BK channel-blocking toxin iberiotoxin (IBTX) [Galvez, A., et al., J. Biol. Chem. 1990, 265, 11083–11090] was employed at a supramaximal concentration, e.g., 50–100 nanomolar (“nM”). The relative contribution of BK channel-mediated current to total outward current was determined by subtraction of the current remaining in the presence of IBTX (non-BK current) from the current profiles obtained in all other experimental conditions (control, drug, and wash) [Gribkoff, V. K. et al., Mol. Pharmacol. 1996, 50, 206–217]. […] All compounds were tested in 5–10 oocytes and are reported at the indicated concentration of 20 micromolar (“μM”) (or as otherwise indicated); the effect of the selected compounds of the invention on BK current was expressed as the percent of control IBTX-sensitive current at a single transmembrane voltage (+140 mV) and is listed in Table 1. Recordings were accomplished using standard two-electrode voltage clamp techniques [Stuhmer, W., et al., Methods in Enzymology, 1992, 207, 319–339]; voltage-clamp protocols consisted of 500–750 milliseconds (“ms”) duration step depolarizations, from a holding potential of −60 mV, to a final voltage up to +140 mV in 20 mV steps. The experimental media (modified Barth's solution) consisted of millimolar (“mM”): NaCl (88), NaHCO3 (2.4), KCl (1.0), HEPES (10), MgSO4 (0.82), Ca(NO3)2 (0.33), CaCl2 (0.41); pH 7.5.

O=C(CCN1CCN(c2ccccn2)CC1)Nc1ccc(Sc2c(-c3cc(Cl)ccc3O)c3cc(C(F)(F)F)ccc3[nH]c2=O)cc1 [Example 14, N-[4-[[4-(5-chloro-2-hydroxyphenyl)-1,2-dihydro-2-oxo-6-(trifluoromethyl)-3-quinolinyl]thio]phenyl]-4-(2-pyridinyl)-1-piperazinepropanamide]
% Inhibition of force (RSI strips) [1]: 24% | inhibition [2]: 37% | % MaxiK opening [3]: 169^⋄ %
